Where “and” joins values, the source holds several entries; their conditions need not be identical. Equal values may be shown once. Marks after values point to notes of the source that are not given here. Values belong to the compound of their own block, whether it stands above or below them.
What was measured:
acetylhydrolase = acetylhydrolase activity, kinetic constants; type: biochemical, human; conditions: excess AAGPC
Procedure: Acetylhydrolase activity was measured in lysates of resting platelets or platelets stimulated with thrombin (0.5 IU/ml, 1 min, 37° C.), in supernatants of thrombin-activated platelets with or without acid-treated (inactivation of acetylhydrolase) plasma and in native plasma. Samples were incubated for 10 min at 37° C. in the presence of 0.1 μCi [^3H]acetyl paf and concentrations of unlabeled paf varying from 5 to 35 μM. The microenvironment modulates the acetylhydrolase indicating the origin of plasma acetylhydrolase from activated platelets.

endothelial cell = test: [^3H]paf binding to endothelial cells
[1] = tested on: endothelial cell prostacyclin release; test: endothelial cell prostacyclin release (6-keto-PGF1-alpha); type: cell-based
[2] = biological target: T1, paf receptors on neutrophils (PMN) (Homo sapiens, UniProt P25105); test: [^3H]paf binding to intact human neutrophils (PMN)
T1 construct: Neutrophils (PMN) were prepared from venous blood (40 ml) from normal donors; endogenous in cells; host or cells: intact neutrophils (PMN) from venous blood of normal donors
T1 sequence (P25105 whole entry): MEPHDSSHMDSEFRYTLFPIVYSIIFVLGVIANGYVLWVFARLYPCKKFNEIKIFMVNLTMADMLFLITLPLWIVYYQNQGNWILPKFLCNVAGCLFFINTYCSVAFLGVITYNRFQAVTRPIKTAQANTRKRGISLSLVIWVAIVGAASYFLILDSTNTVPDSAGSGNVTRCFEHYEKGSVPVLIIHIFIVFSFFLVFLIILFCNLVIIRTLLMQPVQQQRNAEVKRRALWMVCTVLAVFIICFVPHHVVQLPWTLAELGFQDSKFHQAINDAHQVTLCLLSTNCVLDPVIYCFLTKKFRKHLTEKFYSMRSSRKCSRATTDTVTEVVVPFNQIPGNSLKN

[3] = biological target: T2, paf receptors on eosinophils (Homo sapiens, UniProt P25105); test: [^3H]paf binding to intact human eosinophils
T2 construct: endogenous in cells; host or cells: intact human blood eosinophils (about 96% pure)
T2 sequence (P25105 whole entry): as above

human platelets = test: acetylhydrolase release from activated platelets; type: cell-based; conditions: Thrombin 0.5 IU/ml; for acetylhydrolase release: Paf 500 nM
eosinophils = test: cytosolic free calcium (fura-2) in eosinophils; type: cell-based, human; conditions: EGTA 2 mM
Procedure: (§1) The concentration of cytosolic free calcium [Ca^2+]i was measured using the [Ca^2+]i indicator fura-2-acetoxymethyl ester (fura-2). […] The spectrofluorophotometer was programmed to shuttle between the two excitation wavelengths of 340 and 380 nm every 5 sec while keeping the emission wavelength of 505 nm. […] Background values were subtracted from all data. The intracellular Ca^2+ was calculated with the formula [[…] is KD of the fura-2 multiplied with the quotient of the fluorescence at 380 nm from the minimal and the maximal [Ca^2+]i fluorescence.

[4] = tested on: lyso paf receptors on neutrophils (PMN); test: [^3H]lyso paf binding to neutrophils (PMN); parameters: species or system human; conditions: for effect of unlabeled ligand on [^3H]lyso paf binding: excess unlabeled paf or lyso paf 500 nM, WEB 2086 1 μM, 20° C.
PMN = test: cytosolic free calcium (fura-2) in PMN; type: cell-based, human
Procedure: as §1

U 937 cells = test: cAMP levels of U 937 cells; type: cell-based; conditions: cholesterol 60 μg/ml, 24 hrs
Procedure: U 937 cells were grown in stationary suspension culture in RPMI 1640 containing 10% fetal calf serum (FCS) and 2 mM L-glutamine at 37° C. in a humidified atmosphere of 5% CO2 and 95% air. The cells were diluted with fresh medium (1/10, v/v) twice a week. After three days in culture, U 937 cells were centrifuged (1000×G for 10 min) and incubated for 24 hrs in RPMI 1640 medium containing 10% CPSR 1 (delipidated FCS) and 2 mM L-glutamine. Subsequently the cells were incubated in the delipidated FCS medium containing cholesterol (10-60 μg/ml), as compared with solvent alone (ethanol, 0.5% v/v, final concentration) for (2, 4 or 24 hrs).
Cyclic AMP in supernatants from cholesterol-treated and control cells, were measured by the Rianen [^125I]cAMP-RIA Kit. Briefly, cholesterol (60 μg/ml, 24 hrs) or cholesterol vehicle (ethanol) were added after 24 hrs cell incubation in delipidated FCS medium. Cells were subsequently washed three times and resuspended (5×10^6, final concentration) in Hanks Hepes (HH)-buffer, pH 7.4 with ascorbinic acid (10 mM) and cAMP-phosphodiesterase inhibitor IBMX (1 mM). Cell suspension (100 μl) was added to 400 μl of the cAMP buffer for 30 min at 20° C. […] Values are from one experiment (representative of three) expressed as pmol cAMP per 10^6 cells. Total proteins were measured by standard procedure.

[5] = Add. 5 nM, [^3H]paf […], 20° C., 30 min, WEB 2086 1 μM

inhibition of acetylhydrolase activity (acetylhydrolase): not inhibited
Compound: CCCCCCCCCCCCCCCCOCC(COP(=O)([O-])OCC[N+](C)(C)C)OC(=O)CCCCCCCCCCCCCCC (stereo not shown) [AAGPC, 1-O-hexadecyl-2-palmitoyl-GPC]

Compound: COc1ccc(SCC(=S)N2CCc3c(sc4c3C(c3ccccc3Cl)=NCc3nnc(C)n3-4)C2)cc1OC [BN 50 739]
inhibited endothelial cell bound [^3H]paf (endothelial cell; 20 μM): 5.8 fmol

Compound: CC1C(=O)OC2C(O)C34C5CC(C(C)(C)C)C36C(OC(=O)C6O)OC4(C(=O)O5)C12O (stereo not shown) [BU 52021]
endothelial cell prostacyclin release ([1]; 10 μM, increased from 50±2): 126±10 pg per ml

Compound: CCCCCCCCCCCCCC(=O)O[C@@H]1[C@@H](C)[C@@]2(O)[C@@H](C=C(CO)C[C@]3(O)C(=O)C(C)=C[C@@H]23)[C@@H]2C(C)(C)[C@]12OC(C)=O [PMA, phorbol-12-myristate-13-acetate]
[^3H]paf binding ([2]; PMA 1 nM, preincubation 0 min at 37° C.): 385 fmol [^3H]paf bound per 2.5×10^6 PMN
[^3H]paf binding ([2]; PMA 1 nM, preincubation 15 min at 37° C.): 413 fmol [^3H]paf bound per 2.5×10^6 PMN
[^3H]paf binding ([2]; PMA 16 nM, preincubation 0 min at 37° C.): 219 fmol [^3H]paf bound per 2.5×10^6 PMN
[^3H]paf binding ([2]; PMA 16 nM, preincubation 15 min at 37° C.): 171 fmol [^3H]paf bound per 2.5×10^6 PMN

Compound: CCCCCCCCCCCCCCCCCCOC[C@H](COP(=O)([O-])OCC[N+](C)(C)C)OC(C)=O [[^3H]paf] [1-O-[^3H]-octadecyl-2-acetyl-sn-glycero-3-phosphocholine]
binding sites per eosinophil [3]: 85×10^3 sites per eosinophil
Bmax ([3]; 20 hrs at 4° C.): 35.4 fmol per 2.5×10^5 cells
Kd ([3]; 20 hrs at 4° C., read-out: binding affinity (Kd) on eosinophils): 5.5 nM
Kd ([2]; 4° C.): 0.44 nM
total binding of [^3H]paf ([2]; 4° C.): 157.0±27.4 fmol per 2.5×10^6 cells
total binding of [^3H]paf ([2]; 20° C.): 310.5±13.0 fmol per 2.5×10^6 cells

Compound: CC(=O)Oc1ccccc1C(=O)O.NCCCCC(N)C(=O)O [Lysine aspirin]
endothelial cell bound [^3H]paf, % of the total binding (endothelial cell): 177% and 198%

Compound: Thrombin
released of the total acetylhydrolase (human platelets; paf 500 nM, mean±S.E., n=3): 17.2±3.1%
acetylhydrolase release (human platelets; stimulation 0 sec): 2.2 ± 0.9 percentage of the total content of acetylhydrolase
acetylhydrolase release (human platelets; stimulation 15 sec): 8.5 ± 0.7 percentage of the total content of acetylhydrolase
acetylhydrolase release (human platelets; stimulation 30 sec): 13.1 ± 3.9 percentage of the total content of acetylhydrolase
acetylhydrolase release (human platelets; stimulation 60 sec): 12.8 ± 5.1 percentage of the total content of acetylhydrolase
acetylhydrolase release (human platelets; stimulation 120 sec): 10.9 ± 3.1 percentage of the total content of acetylhydrolase
acetylhydrolase release (human platelets; stimulation 180 sec): 17.9 ± 2.6 percentage of the total content of acetylhydrolase
acetylhydrolase release (human platelets; stimulation 300 sec): 17.2 ± 3.1 percentage of the total content of acetylhydrolase

specific [^3H]paf binding, plateau values ([3]; 20° C., 30 min, WEB 2086 400 nM, 3 experiments): 25.8 ± 8.1 fmol
specific [^3H]paf binding ([3]; 20° C., 30 min, WEB 2086 400 nM, 3 other experiments, no inhibitory effect): 4.3 ± 3.3 fmol
specific [^3H]paf binding, maximal plateau values ([3]; 20 hrs at 4° C., assessed with unlabeled paf 500 nM or WEB 2086 400 nM): 14.8±5.1 fmol per 2.5×10^5 cells
specific [^3H]paf binding ([3]; addition 0 nM, WEB 2086 400 nM, 20° C., 30 min): 15.1 ± 8.0^1) fmol per 2.5×10^5 cells
effect of excess unlabeled ligand on [^3H]paf binding ([2]; paf 500 nM, WEB 2086 1 μM): inhibited
Compound: Cc1nnc2n1-c1sc(CCC(=O)N3CCOCC3)cc1C(c1ccccc1Cl)=NC2 [WEB 2086, 3-(4-(2-chlorophenyl)-9-methyl-6H-thieno(3,2-f) (1,2,4)triazolo-(4,3-a)-(1,4)diazepine-2-yl)-1-(4-morpholinyl)-1-propanone]
6-keto-PGF1-alpha ([1]; 100 nM WEB 2086, increased from 127±3): 145±11 pg per ml
effect on paf-mediated [Ca^2+]i rise (eosinophils): competitively inhibited
effect of unlabeled ligand on [^3H]lyso paf binding [4]: inefficient
binding of […] [^3H]lyso paf ([4]; paf 5 nM with WEB 2086 1 μM): 212.0±6.4 fmol/2.5×10^6 PMN
increased phospholipid binding (lysine aspirin) antagonized (endothelial cell): antagonized
effect on paf-induced Ca^2+ flux (PMN; WEB 2086 1 μM, 3 min preincubation): shifted to the right the paf dose-response curve

Compound: CCCCCCCCCCCCCCCCCCNC(=O)OCC(COP(=O)([O-])OCC[n+]1ccsc1)OC (racemic) [CV 3988, rac-3-(N-n-octadecylcarbamoyloxy)-2-methoxypropyl 2-tiazolioethyl phosphate]
increased phospholipid binding (lysine aspirin) antagonized (endothelial cell): antagonized

Compound: CCCCCCCCCCCCCCCCCCOC[C@@H](O)COP(=O)([O-])OCC[N+](C)(C)C [lyso paf, 1-octadecyl-sn-glycero-3-phosphocholine]
interference with [3H]paf binding [3]: did not interfere
specific [^3H]paf binding ([3]; addition 5 nM, WEB 2086 400 nM, 20° C., 30 min): 1.5 ± 1.7 fmol per 2.5×10^5 cells
specific [^3H]paf binding ([3]; addition 10 nM, WEB 2086 400 nM, 20° C., 30 min): 1.2 ± 1.6 fmol per 2.5×10^5 cells
specific [^3H]paf binding ([3]; addition 50 nM, WEB 2086 400 nM, 20° C., 30 min): 4.4 ± 3.7 fmol per 2.5×10^5 cells
effect of unlabeled ligand on [^3H]lyso paf binding [4]: inhibited
cytoplasmic Ca^2+ flux in response to agonist (PMN; 1 to 500 nM, CaCl2 1.3 mM or EGTA 2 mM): induced neither [Ca^2+]i entry nor mobilization
[^3H]paf binding [2, 5]: 354 ± 20 fmol [^3H]paf bound per 2.5×10^6 PMN
[^3H]paf binding ([2]; Add. 10 nM, [^3H]paf […], 20° C., 30 min, WEB 2086 1 μM): 243 ± 16 fmol [^3H]paf bound per 2.5×10^6 PMN
[^3H]paf binding ([2]; Add. 50 nM, [^3H]paf […], 20° C., 30 min, WEB 2086 1 μM): 240 ± 18 fmol [^3H]paf bound per 2.5×10^6 PMN

Compound: 2-lyso phosphocholine [LPC]
interference with [3H]paf binding [3]: did not interfere
[^3H]paf binding [2, 5]: 322 ± 22 fmol [^3H]paf bound per 2.5×10^6 PMN

Compound: CC(C)CCC[C@@H](C)[C@H]1CC[C@H]2[C@@H]3CC=C4C[C@@H](O)CC[C@]4(C)[C@H]3CC[C@]12C [Cholesterol, cholesterol]
release of cAMP levels (U 937 cells): increased
